We go through one compound from US20240327400A1, “COMPOSITIONS AND METHODS FOR MODULATING HAIR GROWTH” (The Regents of the University Of California, priority 2020, published 2024).

Each structure is given as a SMILES string.

The test system of the assay is Lactate dehydrogenase (LDH) activity. The assay can be described thus: LDH activity assay on human skin lysate (Ldh platereader protocol). Particulars: human skin lysate pretreated with benzil prior to incubation with MPC inhibitors; FIG. 7. The format is biochemical. As to the method:
Human skin samples were homogenized with a Benchmark BeadBlaster24R in 500 μl of Pierce RIPA Lysis and Extraction buffer (Thermo Scientific Cat No: 89900), centrifuged at 10,000 g for 15 minutes at 4° C. to remove insoluble material, and the soluble fraction quantified by Pierce BCA assay (Thermo Scientific Cat No: 23225). Lactate dehydrogenase activity was quantified using a Sigma Aldrich Lactate Dehydrogenase Activity Assay Kit (Catalog No: MAK066). Briefly, 10 μg of sample was loaded per well in a 96 well plate along with 20 uM of Pelage compounds and pre-incubated at 37° C. for 30 minutes before addition of Ldh assay master mix. Using a Biotek Synergy HTX multi-mode reader, the plate was incubated at 37° C. and absorbance measurements at 450 nm (A450) were taken every 3 minutes for 30 minutes. The LDH activity of each sample was quantified by calculating the AA450 over time.

Take `N#C/C(=C\c1cn(-c2ccccc2)c2ccccc12)C(=O)O` [UK5099]: the “effect on LDH activity after pretreatment with a carboxylesterase inhibitor (benzil)” value was “no effect”.
